Experimental data from ChEMBL document CHEMBL5634140, “Discovery of benzyloxy benzamide derivatives as potent neuroprotective agents against ischemic stroke” (Eur J Med Chem, 2023).

What was measured:
[1] = system: SH-SY5Y; experiment: Neuroprotective activity against glutamate induced human SH-SY5Y cells at 1 uM preincubated for 30 mins followed by glutamate addition and measured after 24 hrs by LDH based assay; assay type: functional; conditions: time 24.5 hrs
[2] = system: SH-SY5Y; experiment: Neuroprotective activity against glutamate induced human SH-SY5Y cells at 0.1 uM preincubated for 30 mins followed by glutamate addition and measured after 24 hrs by LDH based assay; assay type: functional; conditions: time 24.5 hrs
[3] = system: SH-SY5Y; experiment: Cytotoxicity against human SH-SY5Y cells at 25 uM incubated for 72 hrs by CCK8 assay; assay type: toxicity, cell-based
[4] = system: SH-SY5Y; experiment: Neuroprotective activity against glutamate induced human SH-SY5Y cells at 10 uM preincubated for 30 mins followed by glutamate addition and measured after 24 hrs by LDH based assay; assay type: functional; conditions: time 24.5 hrs

| SMILES | Activity [1] [%] | Activity [2] [%] | Activity [3] [%] | Activity [4] [%] |
| --- | --- | --- | --- | --- |
| Nc1cc(Cl)cc(Cl)c1OCc1ccc(C(=O)NCC(=O)O)cc1 | 47.04 | 18.96 | 5.67 | 66.01 |
| Nc1cc(Cl)cc(Cl)c1OCc1ccc(C(=O)N[C@H]2CCCC[C@@H]2N)cc1 | 39.66 | 10.1 | 2.42 | 65.52 |
| Nc1cc(Cl)cc(Cl)c1OCc1ccc(C(=O)NCCS)cc1 | 35.12 | 9.67 | 5.23 | 61.07 |
| CS(=O)(=O)Nc1ccc(COc2c(N)cc(Cl)cc2Cl)cc1 | 45.26 | 15.4 | 3.57 | 69.19 |
| NCCNC(=O)c1ccc(COc2c(N)cc(Cl)cc2Cl)cc1 | 41.14 | 12.87 | < 0 | 67.8 |
| Nc1cc(Cl)cc(Cl)c1OCc1ccc(C(=O)NCCO)cc1 | 26.31 | 4 | 1.21 | 41.58 |
| Nc1cc(Cl)cc(Cl)c1OCc1ccc(C(=O)N[C@@H]2CCCC[C@H]2N)cc1 | 41.87 | 12.32 | 2.51 | 63.06 |
| Nc1cc(Cl)cc(Cl)c1OCc1ccc(NS(=O)(=O)c2ccccc2)cc1 | 38.63 | 15.64 | 1.96 | 64.69 |
| C[C@@H](N)CNC(=O)c1ccc(COc2c(N)cc(Cl)cc2Cl)cc1 | 41.38 | 13.55 | 3.13 | 63.79 |
